Columns and labels:
hEP2 = target: T1, hEP2 (Homo sapiens, UniProt P43116); test: hEP2 cAMP assay; assay type: cell-based; conditions: HEK293 cells overexpressing hEP2; PGE2 agonist 400 pM; graded per Table 21; read-out: IC50 (nM) EP2 cAMP
T1 construct: expressed in transfected cells; host or cells: HEK293
Experimental: (§1) HEK293 cells overexpressing hEP2 were cultured in growth medium (GM: MEM (Gibco™, 11095080)/10% HI FBS (Gibco™, 10082147)/1% penicillin/streptomycin). Before the experiment, the growth medium was removed, and starvation medium (HBSS (Gibco™, 14025076)/10% GM) was added. Thereafter, the cells were incubated for 4 hours. The HEK293 cells harboring hEP2 were detached from the culture dish with a non-enzymatic cell dissociation buffer (Gibco™, 15040066). The cells were resuspended in assay buffer (AB: HBSS, 0.1% BSA stabilizer, 0.5 mM IBMX, 5 mM HEPES).
(§2) 1,000 cells in 5 μL of AB were seeded per well in a 384 well plate (Corning™, 3570), and stock solutions of test compounds were prepared at a concentration of 1 mM in DMSO and serially diluted in DMSO to the concentration required for the inhibition dose response curve (test concentration range of 10 μM-0.001 nM). PGE2 (Sigma, P0409, stock solution: 1 μM) was used as an agonist at a final concentration of 400 pM corresponding to EC50-80. 2.5 μL of the diluted compound and 2.5 μL of PGE2 (400 pM final concentration) were transferred to the assay plate, and then the plate was incubated at room temperature for 12 minutes.
(§3) 5 μL of each donor (Eu-cAMP tracer) and acceptor (ULight-anti-cAMP) was added, and the plate was incubated in the dark for 1 hour at room temperature, and then a Varioskan LUX multimode microplate reader was used to obtain the results (excitation: 334 nm, emission: 615 and 665 nm). The resulting FRET fluorescence value (665 nm/615 nm*10000) was converted and then calculated as a percentage of cAMP relative to the DMSO control value. IC50 values and curves were generated with GraphPad Prism software using log (inhibitor) versus response-variable slopes (4 parameters), and the median of multiple experiments was taken as the experiment result.

hEP4 = target: T2, hEP4 (Homo sapiens, UniProt P35408); test: hEP4 cAMP assay; assay type: cell-based; conditions: HEK293 cells overexpressing hEP4; PGE2 agonist 20 nM; graded per Table 21; read-out: IC50 (nM) EP4 cAMP
T2 construct: expressed in transfected cells; host or cells: HEK293
T2 sequence (P35408 whole entry): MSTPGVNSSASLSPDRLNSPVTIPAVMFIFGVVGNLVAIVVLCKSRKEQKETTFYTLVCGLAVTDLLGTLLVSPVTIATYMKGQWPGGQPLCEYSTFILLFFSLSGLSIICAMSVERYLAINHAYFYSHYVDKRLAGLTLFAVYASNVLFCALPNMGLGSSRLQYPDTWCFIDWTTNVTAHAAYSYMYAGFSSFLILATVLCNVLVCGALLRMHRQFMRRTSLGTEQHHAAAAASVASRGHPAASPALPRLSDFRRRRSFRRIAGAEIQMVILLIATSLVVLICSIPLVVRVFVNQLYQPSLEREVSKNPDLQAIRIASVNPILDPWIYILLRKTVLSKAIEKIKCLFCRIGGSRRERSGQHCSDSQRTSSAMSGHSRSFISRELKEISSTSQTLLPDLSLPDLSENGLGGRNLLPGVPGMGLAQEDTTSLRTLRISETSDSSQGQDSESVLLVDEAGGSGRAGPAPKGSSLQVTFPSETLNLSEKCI
Experimental: as §1, with “overexpressing hEP4” for “overexpressing hEP2”, “(HBSS (Gibco™” for “(HBSS (Gibco™,”, “hours.” for “hours. The”, “harboring hEP4” for “harboring hEP2”
as §2, with “plate (Corning®,” for “plate (Corning™,”, “solution: 100” for “solution: 1”, “of 20 nM” for “of 400 pM”, “PGE2 (20 nM” for “PGE2 (400 pM”, “for 18.5” for “for 12”
as §3, with “compared” for “relative”, “slope” for “slopes”

T1 sequence (P43116 whole entry): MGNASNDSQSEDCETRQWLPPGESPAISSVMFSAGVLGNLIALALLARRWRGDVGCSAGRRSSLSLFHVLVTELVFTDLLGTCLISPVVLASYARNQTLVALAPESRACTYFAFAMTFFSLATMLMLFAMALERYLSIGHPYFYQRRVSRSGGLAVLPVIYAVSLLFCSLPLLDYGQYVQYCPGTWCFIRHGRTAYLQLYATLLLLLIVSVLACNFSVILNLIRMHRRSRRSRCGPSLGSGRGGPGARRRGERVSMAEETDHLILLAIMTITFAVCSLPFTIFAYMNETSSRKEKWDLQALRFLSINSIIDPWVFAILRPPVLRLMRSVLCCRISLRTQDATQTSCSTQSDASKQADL

SMILES | IC50 (hEP2) | IC50 (hEP4)
O=C(NC1CC2(C1)CC(C(=O)O)C2)c1sccc1Cc1ccc(-c2ccccc2)cc1 (centres unmarked) [Example 18, 6-(3-([1,1′-biphenyl]-4-ylmethyl)thiophene-2-carboxamido)spiro[3.3]heptane-2-carboxylic acid] | 500 to 5000 nM | 500 to 5000 nM
Cc1scc(C(=O)NC2CC3(C2)CC(C(=O)O)C3)c1Cc1ccc(-c2ccccc2)cc1 (centres unmarked) [Example 20, 6-(4-([1,1′-biphenyl]-4-ylmethyl)-5-methylthiophene-3-carboxamido)spiro[3.3]heptane-2-carboxylic acid] | 500 to 5000 nM | < 500 nM
O=C(NC1CC2(C1)CC(C(=O)O)C2)c1csc(-c2ccccc2)c1Cc1ccc(-c2ccccc2)cc1 (centres unmarked) [Example 21, 6-(4-([1,1′-biphenyl]-4-ylmethyl)-5-phenylthiophene-3-carboxamido)spiro[3.3] heptane-2-carboxylic acid] | > 10000 nM | > 10000 nM
O=C(NC1CC2(C1)CC(C(=O)O)C2)c1csc(C2CC2)c1Cc1ccc(-c2ccccc2)cc1 (centres unmarked) [Example 22] | 500 to 5000 nM | 500 to 5000 nM
Cc1sc(C)c(C(=O)NC2CC3(C2)CC(C(=O)O)C3)c1Cc1ccc(Cl)cc1 (centres unmarked) [Example 23, 6-(4-(4-chlorobenzyl)-2,5-dimethylthiophene-3-carboxamido)spiro[3.3]heptane-2-carboxylic acid] | > 10000 nM | > 10000 nM
Cc1sc(C)c(C(=O)NC2CC3(C2)CC(C(=O)O)C3)c1Cc1ccc(-c2ccccc2O)cc1 (centres unmarked) [Example 25, 6-(4-((2′-hydroxy-[1,1′-biphenyl]-4-yl)methyl)-2,5-dimethylthiophene-3-carboxamido)spiro[3.3] heptane-2-carboxylic acid] | > 10000 nM | 5000 to 10000 nM
Cc1sc(C)c(C(=O)NC2CC3(C2)CC(C(=O)O)C3)c1Cc1ccc(-c2cccc(C#N)c2)cc1 (centres unmarked) [Example 30] | > 10000 nM | < 500 nM
Cc1sc(C)c(C(=O)NC2CC3(C2)CC(C(=O)O)C3)c1Cc1ccc(C2=CCCCC2)cc1 (centres unmarked) [Example 32, 6-(2,5-dimethyl-4-((2′,3′,4′,5′_ tetrahydro-[1,1′-biphenyl]-4-yl)methyl)thiophene-3-carboxamido)spiro[3.3]heptane-2-carboxylic acid] | > 10000 nM | 500 to 5000 nM
Cc1sc(C)c(C(=O)NC2CC3(C2)CC(C(=O)O)C3)c1Cc1ccc(-c2ccc(S(C)(=O)=O)cc2)cc1 (centres unmarked) [Example 35, 6-(2,5-dimethyl-4-((4′-(methylsulfonyl)-[1,1′-biphenyl]-4-yl)methyl)thiophene-3-carboxamido)spiro[3.3]heptane-2-carboxylic acid] | > 10000 nM | 5000 to 10000 nM
Cc1sc(C)c(C(=O)NC2CC3(C2)CC(C(=O)O)C3)c1Cc1ccc(-c2ccc(C(=O)OC(C)(C)C)cc2)cc1 (centres unmarked) [Example 36, 6-(4-((4′-(tert-butoxycarbonyl)-[1,1′-biphenyl]-4-yl)methyl)-2,5-dimethylthiophene-3-carboxamido)spiro[3.3]heptane-2-carboxylic acid] | 5000 to 10000 nM | < 500 nM
Cc1ccccc1-c1ccc(Cc2c(C)sc(C)c2C(=O)NC2CC3(C2)CC(C(=O)O)C3)cc1 (centres unmarked) [Example 38, 6-(2,5-dimethyl-4-((2′-methyl-[1,1′-biphenyl]-4-yl)methyl)thiophene-3-carboxamido)spiro[3.3]heptane-2-carboxylic acid] | > 10000 nM | 500 to 5000 nM

Results, then the molecule that gave them:

IC50 (hEP2) | IC50 (hEP4) | SMILES
500 to 5000 nM | < 500 nM | COc1cc(F)cc(-c2ccc(Cc3ccsc3C(=O)NC3CC4(C3)CC(C(=O)O)C4)cc2)c1 (centres unmarked) [Example 19, 6-(3-((3′-fluoro-5′-methoxy-[1,1′-biphenyl]-4-yl)methyl)thiophene-2-carboxamido) spiro[3.3]heptane-2-carboxylic acid]
> 10000 nM | 500 to 5000 nM | COc1ccccc1-c1ccc(Cc2c(C)sc(C)c2C(=O)NC2CC3(C2)CC(C(=O)O)C3)cc1 (centres unmarked) [Example 24, 6-(4-((2′-methoxy-[1,1′-biphenyl]-4-yl)methyl)-2,5-dimethylthiophene-3-carboxamido)spiro[3.3] heptane-2-carboxylic acid]
> 10000 nM | 500 to 5000 nM | Cc1sc(C)c(C(=O)NC2CC3(C2)CC(C(=O)O)C3)c1Cc1ccc(-c2ccncc2)cc1 (centres unmarked) [Example 26, 6-(2,5-dimethyl-4-(4-(pyridin-4-yl)benzyl)thiophene-3-carboxamido)spiro[3.3]heptane-2-carboxylic acid]
> 10000 nM | 500 to 5000 nM | Cc1sc(C)c(C(=O)NC2CC3(C2)CC(C(=O)O)C3)c1Cc1ccc(-c2cccnc2)cc1 (centres unmarked) [Example 27, 6-(2,5-dimethyl-4-(4-(pyridin-3-yl)benzyl)thiophene-3-carboxamido)spiro[3.3]heptane-2-carboxylic acid]
500 to 5000 nM | < 500 nM | Cc1ccc(-c2ccc(Cc3c(C)sc(C)c3C(=O)NC3CC4(C3)CC(C(=O)O)C4)cc2)cc1C (centres unmarked) [Example 28, 6-(4-((3′,4′-dimethyl-[1,1′-biphenyl]-4-yl)methyl)-2,5-dimethylthiophene-3-carboxamido)spiro[3.3]heptane-2-carboxylic acid]
500 to 5000 nM | < 500 nM | COc1cccc(-c2ccc(Cc3c(C)sc(C)c3C(=O)NC3CC4(C3)CC(C(=O)O)C4)cc2)c1 (centres unmarked) [Example 29, 6-(4-((3′-methoxy-[1,1′-biphenyl]-4-yl)methyl)-2,5-dimethylthiophene-3-carboxamido)spiro[3.3]heptane-2-carboxylic acid]
5000 to 10000 nM | < 500 nM | CCc1ccc(-c2ccc(Cc3c(C)sc(C)c3C(=O)NC3CC4(C3)CC(C(=O)O)C4)cc2)cc1 (centres unmarked) [Example 31, 6-(4-((4′-ethyl-[1,1′-biphenyl]-4-yl)methyl)-2,5-dimethylthiophene-3-carboxamido)spiro[3.3]heptane-2-carboxylic acid]
500 to 5000 nM | < 500 nM | Cc1sc(C)c(C(=O)NC2CC3(C2)CC(C(=O)O)C3)c1Cc1ccc(-c2ccoc2)cc1 (centres unmarked) [Example 33, 6-(4-(4-(furan-3-yl)benzyl)-2,5-dimethylthiophene-3-carboxamido)spiro[3.3]heptane-2-carboxylic acid]
500 to 5000 nM | < 500 nM | COc1cc(F)cc(-c2ccc(Cc3c(C)sc(C)c3C(=O)NC3CC4(C3)CC(C(=O)O)C4)cc2)c1 (centres unmarked) [Example 34, 6-(4-((3′-fluoro-5′-methoxy-[1,1′-biphenyl]-4-yl)methyl)-2,5-dimethylthiophene-3-carboxamido)spiro[3.3]heptane-2-carboxylic acid]
> 10000 nM | 5000 to 10000 nM | Cc1sc(C)c(C(=O)NC2CC3(C2)CC(C(=O)O)C3)c1Cc1ccc(-c2ccc(F)c(C(=O)O)c2)cc1 (centres unmarked) [Example 37, 6-(4-((3′-carboxy-4′-fluoro-[1,1′-biphenyl]-4-yl)methyl)-2,5-dimethylthiophene-3-carboxamido)spiro[3.3]heptane-2-carboxylic acid]
> 10000 nM | 500 to 5000 nM | Cc1sc(C)c(C(=O)NC2CC3(C2)CC(C(=O)O)C3)c1Cc1ccc(-c2cnn(C)c2)cc1 (centres unmarked) [Example 39, 6-(2,5-dimethyl-4-(4-(1-methyl-1H-pyrazol-4-yl)benzyl)thiophene-3-carboxamido)spiro[3.3]heptane-2-carboxylic acid]

From US20230365582A1, “NOVEL COMPOUNDS HAVING INHIBITORY ACTIVITY ON PROSTAGLANDIN E2 RECEPTOR AND USES THEREOF” (KANAPH THERAPEUTICS INC., priority 2020, published 2023)
